Laboratory results: US9023847B2, “Azaheterocyclic compounds” (Merck Patent GmbH, priority 2009, dated 2015)

Each compound was assayed against T1, P70S6K (T412E mutant, Millipore) (Homo sapiens, UniProt P23443, T412E) (assay: p70S6K enzyme assay). Conditions: class symbol; 3 nM P70S6K, 24 μM ATP; read-out: IC50 (p70S6K).
T1 construct: purchased Millipore
Format: biochemical
Method: P70S6K inhibitor compounds are diluted and plated in 96 well plates. A reaction mixture including the following components is then added to the compound plate to initiate the enzyme reaction; P70S6K (3 nM, T412E mutant, Millipore) is mixed with 24 μM ATP in an assay buffer containing 100 mM Hepes (pH 7.5), 5 mM MgCl2, 1 mM DTT, 0.015% Brij and 1 μM of the substrate peptide FITC-AHA-AKRRRLSSLRA-OH (derived from the S6 ribosomal protein sequence, FITC=fluorescein isothiocyanate, AHA=6-aminohexanoic acid). The reaction is incubated for 90 min at 25° C., before the addition of 10 mM EDTA to stop the reaction. The proportion of substrate and product (phosphorylated) peptide is analysed on a Caliper Life Sciences Lab Chip 3000, using a pressure of −1.4 psi, and upstream and downstream voltages of −3000 and −700 respectively. Product peaks are resolved before substrate peaks on the resulting chromatograms.

T1 sequence (P23443 whole entry T412E): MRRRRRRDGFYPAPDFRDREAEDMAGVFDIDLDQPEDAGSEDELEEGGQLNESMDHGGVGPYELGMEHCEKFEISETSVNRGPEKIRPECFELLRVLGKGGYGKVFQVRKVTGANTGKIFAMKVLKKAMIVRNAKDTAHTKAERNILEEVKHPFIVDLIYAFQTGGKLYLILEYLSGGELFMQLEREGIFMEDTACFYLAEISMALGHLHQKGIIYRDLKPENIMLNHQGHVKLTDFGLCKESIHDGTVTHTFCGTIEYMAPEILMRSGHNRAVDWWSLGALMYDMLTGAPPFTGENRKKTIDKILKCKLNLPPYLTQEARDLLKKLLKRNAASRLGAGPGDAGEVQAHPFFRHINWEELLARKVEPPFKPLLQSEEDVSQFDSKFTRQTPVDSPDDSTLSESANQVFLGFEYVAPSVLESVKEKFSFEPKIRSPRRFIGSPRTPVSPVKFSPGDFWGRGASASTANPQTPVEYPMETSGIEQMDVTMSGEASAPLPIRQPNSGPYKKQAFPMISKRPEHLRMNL

Row | SMILES | IC50 [µM]
1 | O=C(NCc1cccc(Cl)c1)c1sccc1Nc1ccnc2[nH]ccc12 [Example 30, 3-(1H-Pyrrolo[2,3-b]pyridin-4-ylamino)-thiophene-2-carboxylic acid 3-chloro-benzylamide] | < 0.1
2 | O=C(NCCCCO)c1sccc1Nc1ccnc2[nH]ccc12 [Example 31, 3-(1H-Pyrrolo[2,3-b]pyridin-4-ylamino)-thiophene-2-carboxylic acid (4-hydroxy-butyl)-amide] | 0.1 to 1
3 | CC(=O)NCCCCNC(=O)c1sccc1Nc1ccnc2[nH]ccc12 [Example 32, 3-(1H-Pyrrolo[2,3-b]pyridin-4-ylamino)-thiophene-2-carboxylic acid (4-acetylamino-butyl)-amide] | 0.1 to 1
4 | COc1ccc(NC(=O)c2sccc2Nc2ccnc3[nH]ccc23)cc1 [Example 36, 3-(1H-Pyrrolo[2,3-b]pyridin-4-ylamino)-thiophene-2-carboxylic acid (4-methoxy-phenyl)-amide] | < 0.1
5 | O=C(Nc1ccc(F)cc1)c1sccc1Nc1ccnc2[nH]ccc12 [Example 37, 3-(1H-Pyrrolo[2,3-b]pyridin-4-ylamino)-thiophene-2-carboxylic acid (4-fluoro-phenyl)-amide] | < 0.1
6 | O=C(NCCNCc1ccccn1)c1sccc1Nc1ccnc2[nH]ccc12 [Example 41, 3-(1H-Pyrrolo[2,3-b]pyridin-4-ylamino)-thiophene-2-carboxylic acid {2-[(pyridin-2-ylmethyl)-amino]-ethyl}-amide] | < 0.1
7 | NCCNC(=O)c1sccc1Nc1ccnc2[nH]ccc12 [Example 42, 3-(1H-Pyrrolo[2,3-b]pyridin-4-ylamino)-thiophene-2-carboxylic acid (2-amino-ethyl)-amide] | < 0.1
8 | O=C(N[C@@H](CO)c1ccccc1)c1sccc1Nc1ccnc2[nH]ccc12 [Example 43, R-[3-(1H-Pyrrolo[2,3-b]pyridin-4-ylamino)-thiophene-2-carboxylic acid (2-hydroxy-1-phenyl-ethyl)-amide]] | 1 to 10
9 | O=C(N[C@H](CO)c1ccccc1)c1sccc1Nc1ccnc2[nH]ccc12 [Example 44, S-[3-(1H-Pyrrolo[2,3-b]pyridin-4-ylamino)-thiophene-2-carboxylic acid (2-hydroxy-1-phenyl-ethyl)-amide]] | < 0.1
10 | COc1cccc(CNCCNC(=O)c2sccc2Nc2ccnc3[nH]ccc23)c1 [Example 49, 3-(1H-Pyrrolo[2,3-b]pyridin-4-ylamino)-thiophene-2-carboxylic acid [2-(3-methoxy-benzylamino)-ethyl]-amide] | < 0.1
11 | O=C(NCCNCc1cccc(OC(F)(F)F)c1)c1sccc1Nc1ccnc2[nH]ccc12 [Example 50, 3-(1H-Pyrrolo[2,3-b]pyridin-4-ylamino)-thiophene-2-carboxylic acid [2-(3-trifluoromethoxy-benzylamino)-ethyl]-amide] | < 0.1
12 | O=C(NCCNCc1ccc(OC(F)(F)F)cc1)c1sccc1Nc1ccnc2[nH]ccc12 [Example 51, 3-(1H-Pyrrolo[2,3-b]pyridin-4-ylamino)-thiophene-2-carboxylic acid [2-(4-trifluoromethoxy-benzylamino)-ethyl]-amide] | < 0.1
13 | O=C(NCCNCc1ccc(C(F)(F)F)cc1)c1sccc1Nc1ccnc2[nH]ccc12 [Example 52, 3-(1H-Pyrrolo[2,3-b]pyridin-4-ylamino)-thiophene-2-carboxylic acid [2-(4-trifluoromethyl-benzylamino)-ethyl]-amide] | < 0.1
14 | O=C(NCCNCc1ccoc1)c1sccc1Nc1ccnc2[nH]ccc12 [Example 53, 3-(1H-Pyrrolo[2,3-b]pyridin-4-ylamino)-thiophene-2-carboxylic acid {2-[(furan-3-ylmethyl)-amino]-ethyl}-amide] | < 0.1
15 | Cc1cccc(CN(CCNC(=O)c2sccc2Nc2ccnc3[nH]ccc23)Cc2cccc(C)c2)c1 [Example 55, 3-(1H-Pyrrolo[2,3-b]pyridin-4-ylamino)-thiophene-2-carboxylic acid {2-[bis-(3-methyl-benzyl)-amino]-ethyl}-amide] | 0.1 to 1
16 | O=C(NCCNCc1ccccc1F)c1sccc1Nc1ccnc2[nH]ccc12 [Example 58, 3-(1H-Pyrrolo[2,3-b]pyridin-4-ylamino)-thiophene-2-carboxylic acid [2-(2-fluoro-benzylamino)-ethyl]-amide] | < 0.1
17 | O=C(NCCNCc1ccc2[nH]ccc2c1)c1sccc1Nc1ccnc2[nH]ccc12 [Example 59, 3-(1H-Pyrrolo[2,3-b]pyridin-4-ylamino)-thiophene-2-carboxylic acid {2-[(1H-indol-5-ylmethyl)-amino]-ethyl}-amide] | < 0.1
18 | O=C(NCCNCc1cccnc1)c1sccc1Nc1ccnc2[nH]ccc12 [Example 61, 3-(1H-Pyrrolo[2,3-b]pyridin-4-ylamino)-thiophene-2-carboxylic acid {2-[(pyridin-3-ylmethyl)-amino]-ethyl}-amide] | 0.1 to 1
19 | O=C(NCCNCc1ccc(F)c(Cl)c1)c1sccc1Nc1ccnc2[nH]ccc12 [Example 63, 3-(1H-Pyrrolo[2,3-b]pyridin-4-ylamino)-thiophene-2-carboxylic acid [2-(3-chloro-4-fluoro-benzylamino)-ethyl]-amide] | < 0.1
20 | O=C(c1sccc1Nc1ccnc2[nH]ccc12)N1CCC(NCc2ccccc2)CC1 [Example 65, (4-Benzylamino-piperidin-1-yl)-[3-(1H-pyrrolo[2,3-b]pyridin-4-ylamino)-thiophen-2-yl]-methanone] | 1 to 10

Results, then the compound that gave them:

Row | IC50 [µM] | SMILES
21 | < 0.1 | O=C(NCCNCc1ccccc1)c1sccc1Nc1ccnc2[nH]ccc12 [Example 29, 3-(1H-Pyrrolo[2,3-b]pyridin-4-ylamino)-thiophene-2-carboxylic acid (2-benzylamino-ethyl)-amide]
22 | 0.1 to 1 | CCOC(=O)CCNC(=O)c1sccc1Nc1ccnc2[nH]ccc12 [Example 33, 3-{[3-(1H-Pyrrolo[2,3-b]pyridin-4-ylamino)-thiophene-2-carbonyl]-amino}-propionic acid ethyl ester]
23 | < 0.1 | O=C(NCCNc1ccccc1)c1sccc1Nc1ccnc2[nH]ccc12 [Example 34, 3-(1H-Pyrrolo[2,3-b]pyridin-4-ylamino)-thiophene-2-carboxylic acid (2-phenylamino-ethyl)-amide]
24 | < 0.1 | O=C(Nc1ccc(Cl)cc1)c1sccc1Nc1ccnc2[nH]ccc12 [Example 35, 3-(1H-Pyrrolo[2,3-b]pyridin-4-ylamino)-thiophene-2-carboxylic acid (4-chloro-phenyl)-amide]
25 | 0.1 to 1 | COc1cccc(NC(=O)c2sccc2Nc2ccnc3[nH]ccc23)c1 [Example 39, 3-(1H-Pyrrolo[2,3-b]pyridin-4-ylamino)-thiophene-2-carboxylic acid (3-methoxy-phenyl)-amide]
26 | < 0.1 | COc1ccc(CNCCNC(=O)c2sccc2Nc2ccnc3[nH]ccc23)cc1 [Example 40, 3-(1H-Pyrrolo[2,3-b]pyridin-4-ylamino)-thiophene-2-carboxylic acid [2-(4-methoxy-benzylamino)-ethyl]-amide]
27 | 0.1 to 1 | CC(=O)N(CCNC(=O)c1sccc1Nc1ccnc2[nH]ccc12)Cc1ccccc1 [Example 45, 3-(1H-Pyrrolo[2,3-b]pyridin-4-ylamino)-thiophene-2-carboxylic acid [2-(acetyl-benzyl-amino)-ethyl]-amide]
28 | < 0.1 | O=C(NCCNCc1ccsc1)c1sccc1Nc1ccnc2[nH]ccc12 [Example 46, 3-(1H-Pyrrolo[2,3-b]pyridin-4-ylamino)-thiophene-2-carboxylic acid {2-[(thiophen-3-ylmethyl)-amino]-ethyl}-amide]
29 | < 0.1 | O=C(NCCN(Cc1ccoc1)Cc1ccoc1)c1sccc1Nc1ccnc2[nH]ccc12 [Example 47, 3-(1H-Pyrrolo[2,3-b]pyridin-4-ylamino)-thiophene-2-carboxylic acid [2-(bis-furan-3-ylmethyl-amino)-ethyl]-amide]
30 | < 0.1 | O=C(NCCNCc1ccccc1OC(F)(F)F)c1sccc1Nc1ccnc2[nH]ccc12 [Example 48, 3-(1H-Pyrrolo[2,3-b]pyridin-4-ylamino)-thiophene-2-carboxylic acid [2-(2-trifluoromethoxy-benzylamino)-ethyl]amide]
31 | < 0.1 | Cc1cccc(CNCCNC(=O)c2sccc2Nc2ccnc3[nH]ccc23)c1 [Example 56, 3-(1H-Pyrrolo[2,3-b]pyridin-4-ylamino)-thiophene-2-carboxylic acid [2-(3-methyl-benzylamino)-ethyl]-amide]
32 | < 0.1 | COc1ccccc1CNCCNC(=O)c1sccc1Nc1ccnc2[nH]ccc12 [Example 60, 3-(1H-Pyrrolo[2,3-b]pyridin-4-ylamino)-thiophene-2-carboxylic acid [2-(2-methoxy-benzylamino)-ethyl]-amide]
33 | < 0.1 | O=C(NCCNCc1ccc(F)cc1)c1sccc1Nc1ccnc2[nH]ccc12 [Example 62, 3-(1H-Pyrrolo[2,3-b]pyridin-4-ylamino)-thiophene-2-carboxylic acid [2-(4-fluoro-benzylamino)-ethyl]-amide]
34 | 1 to 10 | NC1CCN(C(=O)c2sccc2Nc2ccnc3[nH]ccc23)CC1 [Example 64, (4-Amino-piperidin-1-yl)-[3-(1H-pyrrolo[2,3-b]pyridin-4-ylamino)-thiophen-2-yl]-methanone]
35 | 0.1 to 1 | O=C(NCCSCc1ccccc1)c1sccc1Nc1ccnc2[nH]ccc12 [Example 66, 3-(1H-Pyrrolo[2,3-b]pyridin-4-ylamino)-thiophene-2-carboxylic acid (2-benzylsulfanyl-ethyl)-amide]
